Columns and labels:
[1] = tested on: PIF (proteolysis inducing factor) induced protein degradation in murine myotubes; test: PIF-induced protein degradation in murine myotubes; assay type: cell-based; settings: AT 100 μM, 2 h prior to addition of PIF
Method: (§1) To investigate the mechanism by which AT protects lean body mass in cachexia, further experiments were carried out in vitro using murine myotubes as a surrogate model of skeletal muscle. Incubation with either PIF or angiotensin II (Ang II) induced protein degradation with a characteristic bell-shaped dose-response curve as previously reported (Smith et al., 2004, Br. J. Cancer, and Tisdale et al., 2006, Cell. Sig) with the maximal effect of PIF at 4.2 nM and Ang II at 0.5 μM (FIGS. 5 and 8).

20S proteasome = 20S proteasome 'chymotrypsin-like' enzyme activity in gastrocnemius muscle; assay type: in vivo, NMRI mice; settings: 40 mg/kg s.c., 3 times per day; after 4 days treatment
Method: (§2) Administration of alpha-trinositol. Mice (n=6) bearing the MAC16 tumour were treated with AT (40 mg/kg) s.c., 3 times per day, for 5 days, while a control group received PBS. Protein synthesis and degradation were determined by the incorporation and release of L-[2,6-^3H]phenylalanine, as described in Smith et al., Cancer Res., 2005; 65:277-83. On the fourth day of treatment half of the group administered 0.4 mmol/L L-[2,6-^3H]phenylalanine in PBS (100 μl) by i.p. administration.
Determination of proteasome activity The activity of the 20S proteasome was determined as the ‘chymotrypsin-like’ enzyme activity, the predominant proteolytic activity of the β5 subunits of the proteasome. Gastrocnemius muscles were rinsed with ice-cold PBS and homogenised in 20 mmol/L Tris-HCl (pH 7.5), 2 mmol/L ATP, 5 mmol/L MgCl2 and 1 mmol/L DTT followed by sonication. The sonicate was centrifuged for 10 minutes at 18,000×g at 4° C., and enzyme activity in the supernatant was determined by the method of Orino et al., FEBS Lett., 1991; 284:206-10, by determining the release of amino methyl coumarin (AMC) from the fluorogenic substrate LLVY-AMC. Activity was measured in the absence and presence of the specific proteasome inhibitor lactacystin (10 mmoles/L). Only lactacystin suppressible activity was considered to be proteasome specific.

[2] = tested on: MAC16 tumour-bearing mice; test: Body weight and gastrocnemius muscle weight in MAC16 tumour-bearing mice (Example 4); assay type: in vivo, NMRI mice; settings: 40 mg/kg s.c., 3 times per day, 5 days
cachectic MAC16 mice = test: Body composition of cachectic MAC16 mice after alpha-trinositol treatment (Example 2); assay type: in vivo, NMRI mice; settings: for Body composition: Fat / Body composition: Lean mass / Body composition: Water: mean ± SD
Text: Animals. Pure strain male NMRI mice (average body weight 25 g) were transplanted with fragments of the MAC16 tumour subcutaneously into the flank by means of a trochar, selected from donor animals with established weight loss (Bibby M C et al., Characterization of transplantable adenocarcinoma in the mouse colon producing cachexia in the recipient animals. J Natl Cancer Inst 78 (1987) 539-546). Transplanted animals were given a rat and mouse breeding diet (Special Diet Services, Witham, UK) and water at lib. Weight loss was evident 10 to 12 days after tumour implantation. Just prior to the development of weight loss 24 animals were randomized into four groups (I-IV) of six animals each.
Administration of alpha-trinositol. A first experiment was started when the animals had lost about 5% of body weight. Aliquots (2.5 μl, Group I; 5 μl, Group II; 10 μl, Group III) of alpha-trinositol stock solution corresponding to doses of 10 mg/kg, 20 mg/kg, and 40 mg/kg for a 25 g animal were administered subcutaneously three times per day at 8.00, 12.00 and 16.00 hrs. The fourth group (Group IV; control) was given an intravenous injection of 10 μl of water. Body weight (FIG. 1), tumour volume (FIG. 2), and water and food intake were determined daily after the last injection.
At the end of the treatment described in Example 1 the mice were sacrificed, and their body composition was analyzed. […] The reduction of lean body mass is normally observed in cachectic patients and is a significant cause of morbidity. No significant change in water content was observed.

[3] = tested on: Ang II induced protein degradation in murine myotubes; test: Ang II-induced protein degradation in murine myotubes; assay type: cell-based; settings: AT 100 μM, 2 h prior to addition of Ang II
Method: as §1

eIF4G.eIF4E complex = test: Western blot after m7GTP-Sepharose extraction: active eIF4G.eIF4E complex; assay type: in vivo, NMRI mice; settings: 40 mg/kg
Method: as §2
(§3) Western blot analysis Gastrocnemius muscle (10 mg) was homogenised in Phosphosafe™ Extraction Reagent (500 μl) and centrifuged at 15000 g for 15 min. Samples of the cytosolic proteins (5 μg) were loaded on either a 10% (mTOR, myosin, eIF4E and eIF4G) 12% (PKR, eIF2α and actin) or 15% (4E-BP1) sodium dodecylsulphate-polyacrylamide gel (SDS-PAGE) and electrophoresed at 180 V for approximately 1 h. The extent of phosphorylation of 4E-BP1, and the association of 4E-BP1 and eIF4G with eIF4E was determined by Western blotting when eIF4E was extracted from the muscle samples by m^7GTP-Sepharose 4B-affinity binding, as previously described Eley ey al., Biochem J., 2007; 407:113-20, by loading 20 μg of protein. […] Blots were scanned by a densitometer to quantify differences.

mTOR = test: Western blot of gastrocnemius muscle: phosphorylated (Ser2448) mTOR; assay type: in vivo, NMRI mice; settings: 40 mg/kg; after 4 days treatment
Method: as §2, §3

[4] = alpha-Trinositol 10 (mg/ml as printed)
[5] = alpha-Trinositol 20 (mg/ml as printed)
[6] = alpha-Trinositol 40 (mg/ml as printed)

## O=P(O)(O)O[C@@H]1[C@H](OP(=O)(O)O)[C@H](O)[C@@H](O)[C@H](O)[C@H]1OP(=O)(O)O [alpha-trinositol, 1-D-Myo-inositol 1,2,6-triphosphate]
[1]
  effect on PIF-induced protein degradation: completely attenuated protein degradation down to basal levels
20S proteasome
  chymotrypsin activity (20S proteasome activity) in gastrocnemius muscle: reduced down to levels found in normal non-tumour bearing mice
[2]
  gastrocnemius muscle weight compared to the control: significantly higher
  weight loss compared to the control group: significantly lower
Cachectic MAC16 mice; [4]
  absolute fat change from controls: −19 % by weight
  absolute lean mass change from controls: +11 % by weight
Cachectic MAC16 mice; alpha-Trinositol 10 (mg/ml as printed), control 6.1 ± 2.1
  Body composition: Fat: 4.9 ± 2.3 % by weight
Cachectic MAC16 mice; alpha-Trinositol 10 (mg/ml as printed), control 26.1 ± 1.6
  Body composition: Lean mass: 27.1 ± 3.0 % by weight
Cachectic MAC16 mice; alpha-Trinositol 10 (mg/ml as printed), control 67.8 ± 1.2
  Body composition: Water: 68.0 ± 2.0 % by weight
Cachectic MAC16 mice; [5]
  absolute fat change from controls: −46 % by weight
  absolute lean mass change from controls: +15 % by weight
  Body composition: Fat: 3.3 ± 0.5 % by weight
  Body composition: Lean mass: 28.6 ± 1.7 % by weight
  Body composition: Water: 68.1 ± 1.7 % by weight
Cachectic MAC16 mice; [6]
  absolute fat change from controls: −39 % by weight
  absolute lean mass change from controls: +25 % by weight
  Body composition: Fat: 3.7 ± 1.9 % by weight
  Body composition: Lean mass: 30.7 ± 2.5 % by weight
  Body composition: Water: 65.6 ± 1.7 % by weight
[3]
  effect on Ang II-induced protein degradation: completely attenuated protein degradation down to basal levels
eIF4G.eIF4E complex
  tumour-induced decrease in formation of the active eIF4G.eIF4E complex: completely attenuated
mTOR
  level of the phosphorylated (Ser2448) form of mTOR in gastrocnemius muscle: completely reversed up to the values found in non tumour-bearing animals
